# Experimental data as given in paper PMC10344656, “Plasma pharmacokinetics of tigolaner, emodepside, and praziquantel following topical administration of a combination product (Felpreva®) and of intravenous administration of the individual active ingredients in cats” (Current Research in Parasitology & Vector-borne Diseases, 2023).
# Where two headings read alike, the source gives them in different places.
# Assays:
# [1] = Plasma pharmacokinetics after intravenous administration of the single active ingredients (Study 1); conditions: for T1/2 (plasma half-life): Study 1, single i.v. bolus in tetraglycol, 0.2 mg/kg praziquantel (actual 1.62, 0.21, 0.21 mg/kg), n = 6 per group, HPLC-MS/MS, geometric mean (geometric CV%)
# Protocol: (§1) Altogether three studies were conducted.
# (§2) Each AI and treatment were evaluated separately.
# (§3) All parameters were derived from individual animal data sets.
# (§4) Relative data set weight was always set to 1.
# The basic plasma PK characteristics of the active AIs tigolaner, emodepside and praziquantel were profiled after i.v. dosing based on at least the following parameters: Clearance (Cl), V, extrapolated concentration at time of dosing (C0), area under the curve until the last concentration above LoQ (AUClast), AUCinf, dose normalized AUClast and AUCinf (AUClast/D, AUCinf/D), mean residence time (MRT), and half-life. The statistical group mean estimates and suitable statistical parameters describing the distribution (scattering) were provided.
# [2] = Plasma pharmacokinetics after single topical Felpreva at 2.5x and 5x dose multiples (Study 2); conditions: for AUClast/D (Geo CV%) / Cmax/D (Geo CV%): dose-normalised, geometric mean (geometric CV%); for Cmax: n = 8, plasma, geometric mean; for AUCinf / T1/2 / Tmax / AUC(0-inf) / half-life: n = 8, geometric mean; for AUC(0-inf): AUCinf; for half-life: T1/2, cats
# Protocol: as §1, §2, §3, §4
# [3] = Excretion in urine and faeces after topical Felpreva (Study 3); conditions: for route of clearance: in vivo
# Protocol: Urine and faeces were collected from cats in Study 3 for analysis of excretion of the AIs. Sampling days per cat were study days 1, 2, 7, 14, 21 and 28. Cats were kept in stainless steel cages with a litter box for the collection of total urine and faeces. The total volume of urine was determined, thereafter 2 aliquots (A + B) of ∼5 ml urine were taken, collected in clear tubes and stored in a freezer set to maintain −18 °C. Faecal samples were weighed and stored in a freezer set to maintain −18 °C.
# Urine samples were prepared for analysis by mixing 100 μl urine with 900 μl solvent mixture (as described above), containing labelled tigolaner and praziquantel as internal standards, and then centrifuged. […] The lower limit of quantitation was 1 μg/l.
# Faecal samples were extracted by mixing 1 or 5 g faeces with 15 or 40 ml acetonitrile containing the internal standards. The mixture was ultrasonicated and shaken by means of an overhead shaker and then centrifuged. The supernatant was transferred into a flask and the residue extracted again with 5 or 30 ml extraction solvent, shaken, and centrifuged. The extracts were combined and filled up to 20 or 100 ml with extraction solvent containing the internal standards, then filtered. […] The limit of quantitation was 10 μg/kg for each analyte.
# [4] = for AUClast/D (Geo CV%) / Cmax/D (Geo CV%): single topical Felpreva 1x, dose-normalised, geometric mean (geometric CV%)
# Protocol: (§7) Altogether three studies were conducted. Cats were treated with Felpreva® (containing emodepside praziquantel and tigolaner) at the recommended dose (14.5 ​mg/kg tigolaner, 3 ​mg/kg emodepside and 12 ​mg/kg praziquantel) or at 2.5× and 5× the recommended dose. For intravenous (i.v.) injection (Study 1) tigolaner, emodepside and praziquantel were formulated in tetraglycol as 8.9%, 1.85% and 7.4% solutions, respectively.
# (§8) All cats were healthy and acclimatized for a minimum of 7 days. In studies 1 and 2, cats were individually housed for 8 ​h or 10–12 days following i.v. or topical administration, respectively, to avoid potential cross-contamination between animals. After this period, cats were group-housed by treatment group and sex. In Study 3, cats were socially housed in groups of 3 (same sex/same dose group) in one or more connected similar cages. The exception was when cats were separated for designated study procedures/activities associated with dosing or urine and faeces collection.
# (§9) In Study 1 where i.v. administration was performed, 6 animals per treatment group were treated with a slow manual i.v. bolus using a catheter placed in the Vv. saphena medialis or Vv. saphena lateralis, and suitable 1-ml single-use syringes. Catheters were placed immediately prior to administration and removed immediately afterwards. Tigolaner (in tetraglycol, C5H9O(OC2H4)nOH, CAS no. 31692-85-0) was administered at 1.5 ​mg/kg (volume: 70–80 ​μl), emodepside (in tetraglycol) was administered at 0.3 ​mg/kg (volume 40–70 ​μl) and praziquantel (in tetraglycol) was administered at 0.2 ​mg/kg (volume: 40–60 ​μl). Low dose rates were administered intravenously to ensure tolerance of an i.v. bolus. Where treatment was administered topically, a spot-on application was manually applied at the base of the head while the hair was divided with 2 fingers. In all studies, topical doses were calculated using individual BWs and the nominal content of the three AIs. The AIs were administered based on the licensed therapeutic dose of 14.5, 3 and 12 ​mg/kg BW for tigolaner, emodepside and praziquantel, respectively. Cats were restrained for approximately a minute following administration to aid spread of the applied formulation and to prevent any possible run-off. […] Cats were closely observed for 1 ​h after dosing and at least once daily thereafter.
# (§10) Blood samples of ∼0.5 ​ml (Studies 1 and 2) and 1.0 ​ml (Study 3) were collected into EDTA K2E tubes from the Vv. cephalica antebrachii or another suitable vein. Plasma was harvested following centrifugation (10 ​°C, 3220× g for 10 ​min) and subsequently stored frozen at −18 ​°C.
# (§11) Analysis of all samples was performed after finalisation of the biological part of the study. The plasma samples were deproteinised by mixing 100 ​μl of plasma with 900 ​μl of a precipitation mixture of 0.040 ​g ammonium acetate in 100 ​ml water plus 0.1 ​ml formic acid and 600 ​ml acetonitrile containing the internal standards praziquantel-cyclohexyl-d11and [^13C2H6] tigolaner and subsequent centrifugation. Analysis of the AIs tigolaner, emodepside, and praziquantel was conducted by using High Performance Liquid Chromatography with an Agilent Zorbax Eclipse Plus C18 Rapid Resolution, 2.1 ​× ​50 ​mm, 1.8 ​μm column, water/formic acid (1000/0.120, v/v) ​+ ​10 ​mMol/l ammonium formate and methanol/formic acid (1000/0.120, v/v) ​+ ​10 ​mMol/l ammonium formate as mobile phase (0–0.5 ​min at 90/10 v/v, gradient to 0/100 v/v at 3–3.5 ​min and gradient to 90/10 v/v at 4–5 ​min) at 60 ​°C with a flow of 0.6 ​ml/min. Detection was performed by Tandem Mass Spectrometry (HPLC-MS/MS) using a Sciex API 5500 mass spectrometer in the positive ionisation mode.
# [5] = in vivo; cited from earlier work
# Text: (§5) Felpreva® combines the established Profender® AIs, emodepside and praziquantel with tigolaner.
# [6] = design: method as in Jacquot et al., 2021; conditions: cats, Nexgard Combo spot-on, ref Jacquot et al., 2021; cited from earlier work
# Text: as §5
# [7] = tested on: fleas and ticks; conditions: cats, single topical dose, minimum recommended dose 14.5 mg/kg body weight, ref Cvejić et al., 2022a, b; Mencke et al., 2023; cited from earlier work
# Text: (§6) Tigolaner, from the bis-pyrazole class of compounds has potent antiparasitic properties acting against γ-aminobutyric acid- (GABA-) and glutamate-gated chloride channels with significant selectivity for insect neurons over mammalian neurons ([EMA, 2022]). Tigolaner has a high potency against insects and acarids by exposure via their feeding, i.e. fleas and ticks that initiate feeding will be exposed to the AI ([Cvejić et al., 2022a], [b]; [Mencke et al., 2023]). A single tigolaner dose administered topically at the minimum recommended dose of 14.5 mg/kg body weight (BW) on cats provides 13 we ...
# [8] = tested on: fleas; conditions: cats, topical, ref EMA, 2022; Mencke et al., 2023; cited from earlier work
# Text: as §6
# [9] = in vivo; conditions: topical or ocular
# Protocol: as §7, §8, §9, §10, §11
# [10] = cats, 1.5 mg/kg tigolaner, 0.2 mg/kg emodepside
# [11] = cats, single topical Felpreva 2.5x
# [12] = cats, single topical Felpreva 5x
# [13] = cats, single i.v. bolus, 1.5 mg/kg tigolaner, 0.2 mg/kg emodepside, 0.2 mg/kg praziquantel, n = 6, geometric mean (geometric CV%)
# [14] = 2.5x dose relative to 1x dose, topical Felpreva, cats
# [15] = 5x dose relative to 1x dose, topical Felpreva, cats
# [16] = cats, Study 2, single topical Felpreva 2.5x, 0.37 ml/kg
# [17] = cats, Study 2, single topical Felpreva 5x, 0.74 ml/kg
# [18] = topical Felpreva, dose rates from 1x to 2.5x and 5x, cats, Cmax/D and AUClast/D
# [19] = Domestic Shorthair, in vivo, iv, 0.2 mg/kg
smiles,measurement,setting,value
"O=C(C1CCCCC1)N1CC(=O)N2CCc3ccccc3C2C1 (stereo not shown) [Praziquantel, praziquantel]",T1/2 (plasma half-life),[1]; [10],1.8 (94.8) h
same,Cl_pred (systemic clearance),[1]; in vivo,1.861 (32.2) l/h/kg
same,Vz_pred (volume of distribution),[1]; in vivo,4.95 (142.2) l/kg
same,AUClast/D (Geo CV%),[2]; [11],0.19 (47.7) h∗kg∗μg/l/μg
same,Cmax/D (Geo CV%),[2]; [11],0.003 (51.7) kg∗μg/l/μg
same,AUClast/D (Geo CV%),[2]; [12],0.25 (22.2) h∗kg∗μg/l/μg
same,Cmax/D (Geo CV%),[2]; [12],0.003 (39.8) kg∗μg/l/μg
same,Ratio Cmax/D,[2]; in vivo,0.75
same,dose proportionality of plasma PK (rate and extent),[2]; in vivo,less than proportional increase
same,route of clearance,[3],equally cleared via the faeces and via the urine for males
same,AUClast/D (Geo CV%),[4]; cats,0.30 (19.9) h∗kg∗μg/l/μg
same,Cmax/D (Geo CV%),[4]; cats,0.004 (57.2) kg∗μg/l/μg
same,AUCinf (total plasma exposure),[4]; in vivo,3.7 (19.6) mg∗h/l
same,AUClast,[4]; in vivo,3.6 (19.7) mg∗h/l
same,Tmax,[4]; in vivo,4.8 (107.7) h
same,absolute bioavailability after topical application,[4]; in vivo,48%
same,"bioavailability after topical application, first 24 h",[4]; in vivo,6%
same,plasma elimination half-life,[4]; in vivo,240 h
same,Tmax,[5],18.7 ± 47 h
same,maximum serum concentration,[5],61.3 ± 44.1 µg/L
same,serum half-life,[5],98.4 ± 36 h
same,serum half-life,[6],103 h
"Cn1nc(C(F)(F)C(F)(F)F)c(C(F)(F)F)c1-n1cc(-c2ccc(Cl)c(C(=O)NC3(C#N)CC3)c2)cn1 [Tigolaner, tigolaner]",T1/2 (plasma half-life),[1]; [10],515.4 (54.2) h
same,AUCinf,[1]; [13],300.1 (29.1) mg∗h/l
same,AUClast,[1]; [13],298 (29.5) mg∗h/l
same,Cl_pred (systemic clearance),[1]; [13],0.005 (31.7) l/h/kg
same,Vz_pred (volume of distribution),[1]; [13],4.00 (56.5) l/kg
same,Ratio AUClast/D,[2]; [14],1.05
same,Ratio Cmax/D,[2]; [14],0.91
same,Ratio AUClast/D,[2]; [15],0.76
same,Ratio Cmax/D,[2]; [15],0.58
same,Cmax,"[2]; cats, Study 2, single topical Felpreva 2.5x, 0.37 ml/kg (36.25 mg/kg tigolaner, 7.5 mg/kg emodepside, 30 mg/kg praziquantel)",2496.9 ng/mL
same,AUCinf,[2]; [16],3308 mg∗h/l
same,T1/2,[2]; [16],569.9 h
same,Tmax,[2]; [16],440.4 h
same,Cmax,"[2]; cats, Study 2, single topical Felpreva 5x, 0.74 ml/kg (72.5 mg/kg tigolaner, 15 mg/kg emodepside, 60 mg/kg praziquantel)",3574.2 ng/mL
same,AUCinf,[2]; [17],5393 mg∗h/l
same,T1/2,[2]; [17],563.2 h
same,AUClast/D (Geo CV%),[2]; [11],108.66 (142.5) h∗kg∗μg/l/μg
same,Cmax/D (Geo CV%),[2]; [11],0.084 (137.8) kg∗μg/l/μg
same,AUClast/D (Geo CV%),[2]; [12],78.5 (30.7) h∗kg∗μg/l/μg
same,Cmax/D (Geo CV%),[2]; [12],0.053 (34.0) kg∗μg/l/μg
same,dose proportionality of plasma PK (rate and extent),[2]; [18],less than proportional increase
same,extent of metabolism (conclusion from excretion),"[3]; cats, Study 3, topical administration, 28 days",poorly metabolized
same,absolute bioavailability after topical application,"[4]; cats, Study 1, Fabs = AUCinf/D spot-on / AUCinf/D i.v., group geometric means",57%
same,AUClast/D (Geo CV%),[4]; cats,103.16 (32.9) h∗kg∗μg/l/μg
same,Cmax/D (Geo CV%),[4]; cats,0.092 (37.9) kg∗μg/l/μg
same,duration of flea and tick control,[7],13 weeks
same,"onset of efficacy, fleas already on the cat prior to treatment",[8],≤ 12 h
same,"onset of efficacy, new flea infestation, after two months",[8],≤ 24 h
same,"onset of efficacy, new flea infestation, for two months",[8],≤ 8 h
"CC(C)C[C@H]1C(=O)O[C@H](Cc2ccc(N3CCOCC3)cc2)C(=O)N(C)[C@@H](CC(C)C)C(=O)O[C@H](C)C(=O)N(C)[C@@H](CC(C)C)C(=O)O[C@H](Cc2ccc(N3CCOCC3)cc2)C(=O)N(C)[C@@H](CC(C)C)C(=O)O[C@H](C)C(=O)N1C [Emodepside, emodepside]",AUC(0-inf),[1]; [19],1600 ng·h/mL
same,AUC(0-t),[1]; [19],1500 ng·h/mL
same,half-life,[1]; [19],202 h
same,Vd,"[1]; in vivo, iv, 0.2 mg/kg",38.2 L/kg
same,clearance,"[1]; in vivo, iv, 0.2 mg/kg",2.18 mL/min/kg
same,Ratio AUClast/D,[2]; [14],0.64
same,Ratio Cmax/D,[2]; [14],0.60
same,Ratio AUClast/D,[2]; [15],0.66
same,Ratio Cmax/D,[2]; [15],0.53
same,AUC(0-inf),"[2]; European Shorthair (ESH), in vivo, topical or ocular, cats, Study 2, single topical Felpreva 2.5x, 0.37 ml/kg",36100 ng·h/mL
same,AUC(0-inf),"[2]; European Shorthair (ESH), in vivo, topical or ocular, cats, Study 2, single topical Felpreva 5x, 0.74 ml/kg",62500 ng·h/mL
same,Cmax,"[2]; European Shorthair (ESH), in vivo, topical or ocular, Cmax, cats, Study 2, single topical Felpreva 5x, 0.74 ml/kg (72.5 mg/kg tigolaner, 15 mg/kg emodepside, 60 mg/kg praziquantel)",106 ng/mL
same,half-life,"[2]; European Shorthair (ESH), in vivo, topical or ocular, Study 2, single topical Felpreva 2.5x, 0.37 ml/kg",329 h
same,half-life,"[2]; European Shorthair (ESH), in vivo, topical or ocular, Study 2, single topical Felpreva 5x, 0.74 ml/kg",328 h
same,Tmax,"[2]; European Shorthair (ESH), in vivo, topical or ocular, Tmax, cats, Study 2, single topical Felpreva 2.5x, 0.37 ml/kg",47.8 h
same,Tmax,"[2]; European Shorthair (ESH), in vivo, topical or ocular, Tmax, cats, Study 2, single topical Felpreva 5x, 0.74 ml/kg",61.9 h
same,AUClast/D (Geo CV%),[2]; [11],4.32 (44.2) h∗kg∗μg/l/μg
same,Cmax/D (Geo CV%),[2]; [11],0.009 (71.4) kg∗μg/l/μg
same,AUClast/D (Geo CV%),[2]; [12],4.5 (36.5) h∗kg∗μg/l/μg
same,Cmax/D (Geo CV%),[2]; [12],0.008 (35.7) kg∗μg/l/μg
same,dose proportionality of plasma PK (rate and extent),[2]; [18],less than proportional increase
same,route of clearance,[3],mainly cleared via the faeces
same,AUClast/D (Geo CV%),[4]; cats,6.79 (38.7) h∗kg∗μg/l/μg
same,Cmax/D (Geo CV%),[4]; cats,0.015 (61.0) kg∗μg/l/μg
same,Tmax,[9]; Domestic Shorthair (DSH),36 h
same,AUC(0-inf),[9]; Domestic Shorthair,20600 ng·h/mL
same,AUC(0-t),[9]; Domestic Shorthair,20500 ng·h/mL
same,Cmax,[9]; Domestic Shorthair,44.3 ng/mL
same,Tmax,[9]; Domestic Shorthair,36.9 h
same,bioavailability,[9]; Domestic Shorthair,90%
same,half-life,[9]; Domestic Shorthair,348 h
